Assay results from ChEMBL document CHEMBL4184141, “Investigating the Antibacterial Activity of Biphenylthiazoles against Methicillin- and Vancomycin-Resistant Staphylococcus aureus (MRSA and VRSA)” (J Med Chem, 2017).
Values after ≈ are worked out from the molar mass of the structure shown. Active and inactive are the calls of the source. The calls are words filed in the database; no cut-off is given here.

Assays:
Staphylococcus aureus [1] = experiment: Antibacterial activity against methicillin-resistant Staphylococcus aureus 2658 RCMB up to 20 hrs by broth microdilution assay; type: functional
[2] = Aqueous solubility of the compound in PBS after 2 hrs by turbidimetric method; type: physicochemical
Staphylococcus aureus [3] = experiment: Antibacterial activity against vancomycin-resistant Staphylococcus aureus VRS10 up to 20 hrs by broth microdilution assay; type: functional; conditions: VRS10, 20 h
Staphylococcus aureus [4] = experiment: Potentiation of vancomycin-induced antibacterial activity against vancomycin-resistant Staphylococcus aureus VRS10 assessed as vancomycin MIC at 0.5 times MIC after 20 to 22 hrs (reference value: […] ug/mL); type: functional
HRT-18 cell line [5] = experiment: Cytotoxicity against human HRT18 cells up to 128 microg/ml after 6 hrs by MTS assay; type: cell-based; conditions: hrt-18, 6 h
Staphylococcus aureus [6] = experiment: Synergistic antibacterial activity against vancomycin-resistant Staphylococcus aureus VRS10 after 20 hrs in presence of vancomycin by checkerboard assay; type: functional; conditions: VRS10, 20 h
Staphylococcus aureus [7] = experiment: Potentiation of vancomycin-induced antibacterial activity against vancomycin-resistant Staphylococcus aureus VRS10 assessed as vancomycin MIC after 20 hrs by checkerboard assay; type: functional; conditions: VRS10, 20 h
Staphylococcus aureus [8] = experiment: Potentiation of vancomycin-induced antibacterial activity against vancomycin-resistant Staphylococcus aureus VRS10 assessed as reduction in vancomycin MIC after 20 hrs by checkerboard assay; type: functional
[9] = Half life in human liver microsomes in presence of NADPH by LC-MS/MS analysis; type: ADME, microsome
[10] = Intrinsic clearance in human liver microsomes in absence of NADPH by LC-MS/MS analysis; type: ADME, microsome; conditions: read-out: CLH
Staphylococcus aureus [11] = experiment: Antibacterial activity against Staphylococcus aureus RN4220 up to 20 hrs by broth microdilution assay; type: functional; conditions: RN4220, 20 h
Staphylococcus aureus [12] = experiment: Antibacterial activity against methicillin-resistant Staphylococcus aureus NRS119 up to 20 hrs by broth microdilution assay; type: functional; conditions: NRS119, 20 h
Staphylococcus aureus [13] = experiment: Antibacterial activity against methicillin-resistant Staphylococcus aureus USA400 NRS123 up to 20 hrs by broth microdilution assay; type: functional; conditions: USA400 NRS123, 20 h
Staphylococcus aureus [14] = experiment: Antibacterial activity against vancomycin-resistant Staphylococcus aureus VRS11a up to 20 hrs by broth microdilution assay; type: functional
Staphylococcus aureus [15] = experiment: Antibacterial activity against vancomycin-resistant Staphylococcus aureus VRS12 up to 20 hrs by broth microdilution assay; type: functional; conditions: VRS12, 20 h
Enterococcus faecium = experiment: Antibacterial activity against vancomycin-resistant Enterococcus faecium ATCC 700221 up to 20 hrs by broth microdilution assay; type: functional; conditions: ATCC 700221, 20 h
Pseudomonas aeruginosa = experiment: Antibacterial activity against Pseudomonas aeruginosa ATCC 15442 up to 20 hrs by broth microdilution assay; type: functional; conditions: ATCC 15442, 20 h
Staphylococcus aureus [16] = experiment: Bactericidal activity against Staphylococcus aureus RN4220 up to 18 hrs by broth microdilution assay; type: functional; conditions: RN4220, 18 h, read-out: MBC99.9
Staphylococcus aureus [17] = experiment: Bactericidal activity against methicillin-resistant Staphylococcus aureus NRS119 up to 18 hrs by broth microdilution assay; type: functional; conditions: NRS119, 18 h, read-out: MBC99.9
Staphylococcus aureus [18] = experiment: Bactericidal activity against methicillin-resistant Staphylococcus aureus USA400 NRS123 up to 18 hrs by broth microdilution assay; type: functional; conditions: USA400 NRS123, 18 h, read-out: MBC99.9
Staphylococcus aureus [19] = experiment: Bactericidal activity against vancomycin-resistant Staphylococcus aureus VRS10 up to 18 hrs by broth microdilution assay; type: functional; conditions: VRS10, 18 h, read-out: MBC99.9
Staphylococcus aureus [20] = experiment: Bactericidal activity against vancomycin-resistant Staphylococcus aureus VRS11a up to 18 hrs by broth microdilution assay; type: functional; conditions: read-out: MBC99.9
Staphylococcus aureus [21] = experiment: Bactericidal activity against vancomycin-resistant Staphylococcus aureus VRS12 up to 18 hrs by broth microdilution assay; type: functional; conditions: VRS12, 18 h, read-out: MBC99.9
Staphylococcus aureus [22] = experiment: Potency index, ratio of vancomycin MIC to compound MIC for antibacterial activity against vancomycin-resistant Staphylococcus aureus VRS10; type: functional
Staphylococcus aureus [23] = experiment: Potency index, ratio of vancomycin MIC to compound MIC for antibacterial activity against vancomycin-resistant Staphylococcus aureus VRS11a; type: functional
Staphylococcus aureus [24] = experiment: Potency index, ratio of vancomycin MIC to compound MIC for antibacterial activity against vancomycin-resistant Staphylococcus aureus VRS12; type: functional
Staphylococcus aureus [25] = experiment: Bactericidal activity against methicillin-resistant Staphylococcus aureus USA300 assessed as time required to reduce bacterial load to 0 at 4 times MIC by time-kill assay; type: functional
[26] = Intrinsic clearance in human liver microsomes in presence of NADPH by LC-MS/MS analysis; type: ADME, microsome; conditions: read-out: CLH
[27] = Half life in human liver microsomes in absence of NADPH by LC-MS/MS analysis; type: ADME, microsome
[28] = Apparent permeability of the compound across basolateral side to apical side in human Caco2 cells by LC-MS/MS analysis; type: ADME, cell-based; conditions: Caco-2
[29] = Efflux ratio of permeability from basolateral to apical side over apical to basolateral side of human Caco2 cells by LC-MS/MS analysis; type: ADME, cell-based; conditions: Caco-2
Staphylococcus aureus [30] = experiment: Potentiation of vancomycin-induced antibacterial activity against vancomycin-resistant Staphylococcus aureus VRS10 assessed as fold reduction in vancomycin MIC at 0.5 times MIC after 20 to 22 hrs; type: functional
Staphylococcus aureus [31] = experiment: Antibacterial activity against methicillin-resistant Staphylococcus aureus USA300 infected in Caenorhabditis elegans AU37 harboring (sek-1(km4);glp-4(bn2)I) mutant assessed as reduction in bacterial burden at 20 ug/ml after 18 hrs by microscopic analysis relative to control; type: functional; design: scale not given: the % may be the effect or the level left
HRT-18 cell line [32] = experiment: Cytotoxicity against human HRT18 cells up to 32 microg/ml after 6 hrs by MTS assay; type: cell-based; conditions: hrt-18, 6 h
HRT-18 cell line [33] = experiment: Cytotoxicity against human HRT18 cells at 64 microg/ml after 6 hrs by MTS assay; type: cell-based; conditions: hrt-18, 6 h
Staphylococcus aureus [34] = experiment: Bactericidal activity against methicillin-resistant Staphylococcus aureus USA300 assessed as time required for 3 log10CFU reduction in bacterial load at 4 times MIC by time kill assay; type: functional

Cc1nc(-c2ccc(-c3ccccc3)cc2)sc1-c1ccnc(N2CC(O)C2)n1
MIC (Staphylococcus aureus [1]): 3.12 µg/mL (≈ 7.79 µM)

Cc1nc(-c2ccc(-c3ccccc3)cc2)sc1-c1ccnc(N2CCC2)n1
MIC (Staphylococcus aureus [1]): > 25 µg/mL

Cc1nc(-c2ccc(-c3ccccc3)cc2)sc1-c1ccnc(NC(=N)c2ccncc2)n1
MIC (Staphylococcus aureus [1]): > 25 µg/mL

Cc1nc(-c2ccc(-c3ccccc3)cc2)sc1-c1ccnc(NC(=N)N)n1
MIC (Staphylococcus aureus [1]): 1.56 µg/mL (≈ 4.04 µM) | solubility kinetic at 2 h [2]: 2.2 µM (≈ 0.85 µg/mL)

CCCCNc1nccc(-c2sc(-c3ccc(-c4ccccc4)cc3)nc2C)n1
MIC (Staphylococcus aureus [1]): > 25 µg/mL

CCN(CC)c1nccc(-c2sc(-c3ccc(-c4ccccc4)cc3)nc2C)n1
MIC (Staphylococcus aureus [1]): > 25 µg/mL

Cc1nc(-c2ccc(-c3ccccc3)cc2)sc1-c1ccnc(N2CCN(C)CC2)n1
MIC (Staphylococcus aureus [1]): 6.25 µg/mL (≈ 14.6 µM) | MIC (Staphylococcus aureus [3]): 32 µg/mL (≈ 74.8 µM) | MIC (Staphylococcus aureus [4]): 1 µg/mL | Activity (HRT-18 cell line [5]): Non-Toxic | MIC (Staphylococcus aureus [6]): 1 µg/mL | MIC (Staphylococcus aureus [7]): 0.5 to 64 µg/mL | fractional inhibitory concentration index (FICI) (Staphylococcus aureus [8]): 0.03 - 0.53

Cc1nc(-c2ccc(-c3ccccc3)cc2)sc1-c1ccnc(NC(=N)N2CCN(C)CC2)n1
half-life [9]: 151 min | microsomal CLint [10]: < 9.6 µL/min/mg | MIC (Staphylococcus aureus [1]): 0.39 µg/mL (≈ 0.83 µM) | MIC (Staphylococcus aureus [11]): 2 µg/mL (≈ 4.26 µM) | MIC (Staphylococcus aureus [12]): 2 µg/mL (≈ 4.26 µM) | MIC (Staphylococcus aureus [13]): 1 µg/mL (≈ 2.13 µM) | MIC (Staphylococcus aureus [3]): 4 to 8 µg/mL (≈ 8.52 to 17 µM) | MIC (Staphylococcus aureus [14]): 4 µg/mL (≈ 8.52 µM) | MIC (Staphylococcus aureus [15]): 2 µg/mL (≈ 4.26 µM) | MIC (Enterococcus faecium): 16 µg/mL (≈ 34.1 µM) | MIC (Pseudomonas aeruginosa): > 64 µg/mL | MBC (Staphylococcus aureus [16]): 8 µg/mL (≈ 17 µM) | MBC (Staphylococcus aureus [17]): 4 µg/mL (≈ 8.52 µM) | MBC (Staphylococcus aureus [18]): 2 µg/mL (≈ 4.26 µM) | MBC (Staphylococcus aureus [19]): 8 µg/mL (≈ 17 µM) | MBC (Staphylococcus aureus [20]): 8 µg/mL (≈ 17 µM) | MBC (Staphylococcus aureus [21]): 8 µg/mL (≈ 17 µM) | Ratio (Staphylococcus aureus [22]): 100 | Ratio (Staphylococcus aureus [23]): 100 | Ratio (Staphylococcus aureus [24]): 8 | Time (Staphylococcus aureus [25]): 2 h | microsomal CLint [26]: 15.3 µL/min/mg | half-life [27]: > 240 min | solubility kinetic at 2 h [2]: 2.3 µM (≈ 1.08 µg/mL) | Papp B→A [28]: 1.7 ×10⁻⁶ cm/s | efflux ratio [29]: > 2 | Activity (Staphylococcus aureus [30]): inactive | Activity (Staphylococcus aureus [31]): 65% | Activity (HRT-18 cell line [32]): Non-Toxic | Activity (HRT-18 cell line [33]): Toxic | MIC (Staphylococcus aureus [6]): 0.13 µg/mL | MIC (Staphylococcus aureus [7]): 128 to 256 µg/mL | fractional inhibitory concentration index (FICI) (Staphylococcus aureus [8]): 1.02

CCNc1nccc(-c2sc(-c3ccc(-c4ccccc4)cc3)nc2C)n1
MIC (Staphylococcus aureus [1]): 6.25 µg/mL (≈ 16.8 µM)

Cc1nc(-c2ccc(-c3ccccc3)cc2)sc1-c1ccnc(NC(C)C)n1
MIC (Staphylococcus aureus [1]): > 25 µg/mL

CNc1nccc(-c2sc(-c3ccc(-c4ccccc4)cc3)nc2C)n1
MIC (Staphylococcus aureus [1]): 12.5 µg/mL (≈ 34.9 µM)

Cc1nc(-c2ccc(-c3ccccc3)cc2)sc1-c1ccnc(NC(N)=S)n1
MIC (Staphylococcus aureus [1]): > 25 µg/mL

Cc1nc(-c2ccc(-c3ccccc3)cc2)sc1-c1ccnc(NC(=N)N2CCCCC2)n1
MIC (Staphylococcus aureus [1]): > 25 µg/mL

C/C(=N\NC(=N)N)c1sc(-c2ccc(-c3ccccc3)cc2)nc1C
MIC (Staphylococcus aureus [1]): 1.6 to 2.4 µg/mL (≈ 4.58 to 6.87 µM) | Time (Staphylococcus aureus [34]): 10 h | solubility kinetic at 2 h [2]: 2.7 µM (≈ 0.944 µg/mL) | Papp B→A [28]: 1.2 ×10⁻⁶ cm/s | efflux ratio [29]: > 2

Cc1nc(-c2ccc(-c3ccccc3)cc2)sc1-c1ccnc(NN2CCOCC2)n1
MIC (Staphylococcus aureus [1]): 3.12 µg/mL (≈ 7.26 µM)

Cc1nc(-c2ccc(-c3ccccc3)cc2)sc1-c1ccnc(NC2CCCC2)n1
MIC (Staphylococcus aureus [1]): > 25 µg/mL

Cc1nc(-c2ccc(-c3ccccc3)cc2)sc1-c1ccnc(-c2cccnc2)n1
MIC (Staphylococcus aureus [1]): > 25 µg/mL

Cc1nc(-c2ccc(-c3ccccc3)cc2)sc1-c1ccnc(N2CCCCC2)n1
MIC (Staphylococcus aureus [1]): > 25 µg/mL

Cc1nc(-c2ccc(-c3ccccc3)cc2)sc1-c1ccnc(NC2CCCCC2)n1
MIC (Staphylococcus aureus [1]): > 25 µg/mL

Cc1nc(-c2ccc(-c3ccccc3)cc2)sc1-c1ccnc(NC(=N)n2cccn2)n1
MIC (Staphylococcus aureus [1]): > 25 µg/mL
